Laboratory results: patent publication US20250195521A1 (Revolution Medicines, Inc., priority 2020, published 2025)
Like-named read-outs stand apart in the source and are kept apart here.

Legend:
[1] = system: Capan-1 cells (K-Ras G12V); assay: CellTiter-Glo cell viability, Capan-1; format: cell-based, human; conditions: K-Ras G12V, 5-day treatment, read-out: Capan-1 Cell Viability IC50
Summary of the method: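 Viability is read as luminescence after five days of compound exposure, with plates first equilibrated to room temperature for roughly 30 minutes. Each signal is expressed as a percentage of the mean DMSO control, and curves are fitted by four-parameter logistic regression.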

KRAS G12C = KRAS G12C (Homo sapiens (Human), UniProt P01116+P62937, G12C); assay: Ras-Raf disruption/FRET/MOA assay (BRAF RBD, Cyclophilin A); format: biochemical; conditions: read-out: KRAS G12C FRET IC50
Chain of KRAS G12C (P01116-2 other isoform, or with tags, fused parts or gaps G12C): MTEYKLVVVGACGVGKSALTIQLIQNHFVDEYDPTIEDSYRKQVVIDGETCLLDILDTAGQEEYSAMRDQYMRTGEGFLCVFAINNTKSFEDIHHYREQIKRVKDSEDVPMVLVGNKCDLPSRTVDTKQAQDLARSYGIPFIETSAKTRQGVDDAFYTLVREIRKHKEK
Chain of KRAS G12C (P62937 whole entry): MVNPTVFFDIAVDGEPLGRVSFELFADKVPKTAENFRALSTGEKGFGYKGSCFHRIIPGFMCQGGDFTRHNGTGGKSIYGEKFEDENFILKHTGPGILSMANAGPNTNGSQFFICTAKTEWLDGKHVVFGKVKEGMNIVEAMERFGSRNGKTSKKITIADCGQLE
Procedure: (§1) Compound is present in plate wells as a 10-point 3-fold dilution series starting at a final concentration of 30 μM. After incubation at 25° C. for 3 hours, a mixture of Anti-His Eu—W1024 and anti-GST allophycocyanin is then added to assay sample wells at final concentrations of 10 nM and 50 nM, respectively, and the reaction incubated for an additional 1.5 hours. […] Compounds that facilitate disruption of a Ras: RAF complex are identified as those eliciting a decrease in the TR-FRET ratio relative to DMSO control wells.
(§2) Disruption of B-Raf Ras-Binding Domain (BRAF^RBD) Interaction with K-Ras by Compounds of the Invention (Also Called a FRET Assay or an MOA Assay)
(§3) Note—The following protocol describes a procedure for monitoring disruption of K-Ras G12C (GMP-PNP) binding to BRAF^RBD by a compound of the invention. This protocol may also be executed substituting other Ras proteins or nucleotides.
(§4) The purpose of this biochemical assay was to measure the ability of test compounds to facilitate ternary complex formation between a nucleotide-loaded K-Ras isoform and Cyclophilin A; the resulting ternary complex disrupts binding to a BRAF^RBD construct, inhibiting K-Ras signaling through a RAF effector. Data is reported as IC50 values.
(§5) In assay buffer containing 25 mM HEPES pH 7.3, 0.002% Tween20, 0.1% BSA, 100 mM NaCl and 5 mM MgCl2, tagless Cyclophilin A, His6-K-Ras-GMPPNP, and GST-BRAF^RBD were combined in a 384-well assay plate at final concentrations of 25 μM, 12.5 nM and 50 nM, respectively. Compound was present in plate wells as a 10-point 3-fold dilution series starting at a final concentration of 30 μM. After incubation at 25° C. for 3 hours, a mixture of Anti-His Eu—W1024 and anti-GST allophycocyanin was then added to assay sample wells at final concentrations of 10 nM and 50 nM, respectively, and the reaction incubated for an additional 1.5 hours. […] Compounds that facilitate disruption of a K-Ras: RAF complex were identified as those eliciting a decrease in the TR-FRET ratio relative to DMSO control wells.

KRAS G12D = KRAS G12D (Homo sapiens (Human), UniProt P01116+P62937, G12D); assay: as above; format: biochemical; conditions: read-out: KRAS G12D FRET IC50
Chain of KRAS G12D (P01116 other isoform, or with tags, fused parts or gaps G12D): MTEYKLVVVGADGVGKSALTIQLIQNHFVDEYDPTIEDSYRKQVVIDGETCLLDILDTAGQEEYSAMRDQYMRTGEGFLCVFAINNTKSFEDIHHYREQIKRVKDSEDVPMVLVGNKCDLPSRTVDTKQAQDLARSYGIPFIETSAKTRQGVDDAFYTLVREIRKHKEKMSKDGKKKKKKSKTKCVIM
Chain of KRAS G12D (P62937 whole entry): as the sequence (P62937 whole entry) above
Procedure: as §1, §2, §3, §4, §5

KRAS G12S = KRAS G12S (Homo sapiens (Human), UniProt P01116+P62937, G12S); assay: as above; format: biochemical; conditions: read-out: KRAS G12S FRET IC50
Chain of KRAS G12S (P01116 other isoform, or with tags, fused parts or gaps G12S): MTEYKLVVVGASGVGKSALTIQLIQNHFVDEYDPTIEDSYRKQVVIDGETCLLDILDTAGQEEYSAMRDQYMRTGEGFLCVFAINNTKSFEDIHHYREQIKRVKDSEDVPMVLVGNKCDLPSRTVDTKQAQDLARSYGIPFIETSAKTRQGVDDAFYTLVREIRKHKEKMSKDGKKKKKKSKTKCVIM
Chain of KRAS G12S (P62937 whole entry): as the sequence (P62937 whole entry) above
Procedure: as §1, §2, §3, §4, §5

KRAS G12V = KRAS G12V (Homo sapiens (Human), UniProt P01116+P62937, G12V); assay: as above; format: biochemical; conditions: read-out: KRAS G12V FRET IC50
Chain of KRAS G12V (P01116 other isoform, or with tags, fused parts or gaps G12V): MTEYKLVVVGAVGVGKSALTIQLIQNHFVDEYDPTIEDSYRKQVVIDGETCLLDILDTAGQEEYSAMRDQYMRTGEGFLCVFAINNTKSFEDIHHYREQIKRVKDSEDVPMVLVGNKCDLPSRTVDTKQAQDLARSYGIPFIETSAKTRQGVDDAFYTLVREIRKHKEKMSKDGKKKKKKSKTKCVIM
Chain of KRAS G12V (P62937 whole entry): as the sequence (P62937 whole entry) above
Procedure: as §1, §2, §3, §4, §5

KRAS G13C = KRAS G13C (Homo sapiens (Human), UniProt P01116+P62937, G13C); assay: as above; format: biochemical; conditions: read-out: KRAS G13C FRET IC50
Chain of KRAS G13C (P01116 other isoform, or with tags, fused parts or gaps G13C): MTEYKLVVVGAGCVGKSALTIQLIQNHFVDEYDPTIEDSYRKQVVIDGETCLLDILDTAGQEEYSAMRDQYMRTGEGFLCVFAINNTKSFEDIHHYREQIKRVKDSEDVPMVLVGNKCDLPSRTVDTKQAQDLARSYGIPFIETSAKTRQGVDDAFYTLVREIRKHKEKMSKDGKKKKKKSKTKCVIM
Chain of KRAS G13C (P62937 whole entry): as the sequence (P62937 whole entry) above
Procedure: as §1, §2, §3, §4, §5

KRAS G13D = KRAS G13D (Homo sapiens (Human), UniProt P01116+P62937, G13D); assay: as above; format: biochemical; conditions: read-out: KRAS G13D FRET data IC50
Chain of KRAS G13D (P01116 other isoform, or with tags, fused parts or gaps G13D): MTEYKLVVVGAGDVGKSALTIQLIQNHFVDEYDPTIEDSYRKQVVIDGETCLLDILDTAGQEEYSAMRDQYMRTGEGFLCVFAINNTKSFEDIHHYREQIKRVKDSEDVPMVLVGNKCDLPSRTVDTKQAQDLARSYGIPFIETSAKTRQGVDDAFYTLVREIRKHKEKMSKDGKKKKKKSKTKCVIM
Chain of KRAS G13D (P62937 whole entry): as the sequence (P62937 whole entry) above
Procedure: as §1, §2, §3, §4, §5

KRAS WT = KRAS WT (Homo sapiens (Human), UniProt P01116+P62937); assay: as above; format: biochemical; conditions: read-out: KRAS WT FRET data IC50
Chain of KRAS WT (P01116 other isoform, or with tags, fused parts or gaps): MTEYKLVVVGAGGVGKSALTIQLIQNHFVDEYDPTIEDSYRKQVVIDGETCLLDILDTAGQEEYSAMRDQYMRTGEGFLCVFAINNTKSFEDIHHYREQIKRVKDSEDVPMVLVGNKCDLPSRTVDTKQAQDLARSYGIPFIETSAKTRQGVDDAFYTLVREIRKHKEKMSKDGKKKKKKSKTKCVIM
Chain of KRAS WT (P62937 whole entry): as the sequence (P62937 whole entry) above
Procedure: as §1, §2, §3, §4, §5

NRAS G12C = NRAS G12C (Homo sapiens (Human), UniProt P01111+P62937, G12C); assay: as above; format: biochemical; conditions: read-out: NRAS G12C FRET data IC50
Chain of NRAS G12C (P01111 whole entry G12C): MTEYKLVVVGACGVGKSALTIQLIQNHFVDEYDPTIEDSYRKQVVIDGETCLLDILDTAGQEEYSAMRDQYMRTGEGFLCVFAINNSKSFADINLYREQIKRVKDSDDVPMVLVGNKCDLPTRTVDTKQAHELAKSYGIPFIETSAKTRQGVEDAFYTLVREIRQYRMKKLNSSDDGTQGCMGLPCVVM
Chain of NRAS G12C (P62937 whole entry): as the sequence (P62937 whole entry) above
Procedure: as §1, §2, §3, §4, §5

Row | Structure (SMILES) | IC50 ([1]; Homo sapiens, CAPAN-1, 120 h) [nM] | IC50 (KRAS G12C) [nM] | IC50 (KRAS G12D) [nM] | IC50 (KRAS G12S) [nM] | IC50 (KRAS G12V) [nM] | IC50 (KRAS G13C) [nM] | IC50 (KRAS G13D) [nM] | IC50 (KRAS WT) [nM] | IC50 (NRAS G12C) [nM] | IC50 [1] [nM]
1 | CCn1c(-c2cnccc2COC)c2c3cc(ccc31)-c1cc(O)cc(c1)C[C@H](NC(=O)[C@H](C(C)C)N(C)C(=O)[C@@H]1CNC[C@@H]1C(F)(F)F)C(=O)N1CCC[C@H](N1)C(=O)OCC(C)(C)C2 [Compound A79] | > 10000 | 100 to 1000 | 100 to 1000 | 100 to 1000 | 1000 to 10000 | 100 to 1000 | 100 to 1000 | 100 to 1000 | 100 to 1000 | –
2 | CCn1c(-c2cccnc2[C@H](C)OC)c2c3cc(ccc31)-c1csc(n1)C[C@H](NC(=O)[C@H](C(C)C)N(C)C(=O)[C@H]1CCN(CCO)C1)C(=O)N1CCC[C@H](N1)C(=O)OCC(C)(C)C2 [Compound A110] | > 10000 | 1000 to 10000 | 1000 to 10000 | 1000 to 10000 | > 10000 | 1000 to 10000 | 1000 to 10000 | 1000 to 10000 | 1000 to 10000 | –
3 | CCn1c(-c2cccnc2[C@H](C)OC)c2c3cc(ccc31)-c1cc(O)cc(c1)C[C@H](NC(=O)[C@H](C(C)C)N(C)C(=O)C1CC13CNC3)C(=O)N1CCC[C@H](N1)C(=O)OCC(C)(C)C2 (stereo partly drawn) [Compound A140] | > 10000 | 10 to 100 | 10 to 100 | 10 to 100 | 10 to 100 | 10 to 100 | 10 to 100 | 10 to 100 | 10 to 100 | –
4 | CCn1c(-c2cccnc2[C@H](C)OC)c2c3cc(ccc31)-c1cc(O)cc(c1)C[C@H](NC(=O)C13CCCC1C3(F)F)C(=O)N1CCC[C@H](N1)C(=O)OCC(C)(C)C2 (stereo partly drawn) [Compound A180] | 1000 to 10000 | 1000 to 10000 | > 10000 | 1000 to 10000 | 1000 to 10000 | 100 to 1000 | 1000 to 10000 | 1000 to 10000 | 1000 to 10000 | –
5 | CCn1c(-c2cccnc2[C@H](C)OC)c2c3cc(ccc31)-c1cc(O)cc(c1)C[C@H](NC(=O)[C@H](C(C)C)N(C)C(=O)OCc1ccccc1)C(=O)N1CCC[C@H](N1)C(=O)OCC(C)(C)C2 [Compound A185] | 1000 to 10000 | 1000 to 10000 | > 10000 | 1000 to 10000 | 1000 to 10000 | 100 to 1000 | 1000 to 10000 | 1000 to 10000 | 1000 to 10000 | –
6 | CCn1c(-c2cccnc2[C@H](C)OC)c2c3cc(ccc31)-c1csc(n1)C[C@H](NC(=O)[C@H](C(C)C)N(C)C(=O)N1CC(OC)C1)C(=O)N1CCC[C@H](N1)C(=O)OCC(C)(C)C2 [Compound A205] | – | 10 to 100 | 100 to 1000 | 100 to 1000 | 100 to 1000 | 100 to 1000 | 100 to 1000 | 100 to 1000 | 10 to 100 | 10 to 100
7 | CCn1c(-c2cccnc2[C@H](C)OC)c2c3cc(ccc31)-c1cccc(c1)C[C@H](NC(=O)[C@H](C(C)C)N(C)C(=O)[C@@H]1CCN(C3COC3)C1)C(=O)N1CCC[C@H](N1)C(=O)OCC(C)(C)C2 [Compound A206] | > 10000 | 1000 to 10000 | > 10000 | > 10000 | > 10000 | 1000 to 10000 | 1000 to 10000 | 1000 to 10000 | 1000 to 10000 | –
8 | CCn1c(-c2cccnc2[C@H](C)OC)c2c3cc(ccc31)-c1csc(n1)C[C@H](NC(=O)[C@H](C(C)C)N1CCC3(CCN(C)C3)C1=O)C(=O)N1CCC[C@H](N1)C(=O)OCC(C)(C)C2 (stereo partly drawn) [Compound A213] | > 10000 | 1000 to 10000 | 1000 to 10000 | 1000 to 10000 | > 10000 | 1000 to 10000 | 1000 to 10000 | 1000 to 10000 | 1000 to 10000 | –
9 | CCn1c(-c2cccnc2[C@H](C)OC)c2c3cc(ccc31)-c1cc(O)cc(c1)C[C@H](NC(=O)[C@H](C(C)C)N(C)C(=O)[C@@H]1NC[C@@H]3C[C@@H]31)C(=O)N1CCC[C@H](N1)C(=O)OCC(C)(C)C2 [Compound A217] | 100 to 1000 | 10 to 100 | 100 to 1000 | 10 to 100 | 100 to 1000 | 10 to 100 | 10 to 100 | 10 to 100 | 10 to 100 | –
10 | CCn1c(-c2cccnc2[C@H](C)OC)c2c3cc(ccc31)-c1cc(O)cc(c1)C[C@H](NC(=O)[C@H](C(C)C)N(C)C(=O)C1CCCC1)C(=O)N1CCC[C@H](N1)C(=O)OCC(C)(C)C2 [Compound A219] | 100 to 1000 | 10 to 100 | 100 to 1000 | 10 to 100 | 10 to 100 | 10 to 100 | 100 to 1000 | 10 to 100 | 10 to 100 | –
11 | CCn1c(-c2cccnc2[C@H](C)OC)c2c3cc(ccc31)-c1cc(O)cc(c1)C[C@H](NC(=O)[C@H](C(C)C)N(C)C(=O)C1CNCCO1)C(=O)N1CCC[C@H](N1)C(=O)OCC(C)(C)C2 (stereo partly drawn) [Compound A229] | 1000 to 10000 | 10 to 100 | 100 to 1000 | 100 to 1000 | 100 to 1000 | 10 to 100 | 10 to 100 | 100 to 1000 | 10 to 100 | –
12 | CCn1c(-c2cccnc2[C@H](C)OC)c2c3cc(ccc31)-c1cc(O)cc(c1)C[C@H](NC(=O)[C@H](C(C)C)N(C)C(=O)[C@H]1CNC[C@@H]1C)C(=O)N1CCC[C@H](N1)C(=O)OCC(C)(C)C2 [Compound A251] | > 10000 | 100 to 1000 | 100 to 1000 | 100 to 1000 | 100 to 1000 | 10 to 100 | 10 to 100 | 100 to 1000 | 100 to 1000 | –
13 | CCn1c(-c2cccnc2[C@H](C)OC)c2c3cc(ccc31)-c1csc(n1)C[C@H](NC(=O)[C@H](C(C)C)N(C)C(=O)N1CC(C3COC3)C1)C(=O)N1CCC[C@H](N1)C(=O)OCC(C)(C)C2 [Compound A298] | 10 to 100 | 10 to 100 | 100 to 1000 | 100 to 1000 | 100 to 1000 | 100 to 1000 | 100 to 1000 | 10 to 100 | 10 to 100 | –
14 | CO[C@@H](C)c1ncccc1-c1c2c3cc(ccc3n1CC(F)(F)F)-c1csc(n1)C[C@H](NC(=O)[C@H](C(C)C)N(C)C(=O)N1CC(N(C)C)C1)C(=O)N1CCC[C@H](N1)C(=O)OCC(C)(C)C2 [Compound A303] | – | 10 to 100 | 100 to 1000 | 100 to 1000 | 100 to 1000 | 100 to 1000 | 100 to 1000 | 100 to 1000 | 10 to 100 | 10 to 100
15 | CCn1c(-c2cccnc2[C@H](C)OC)c2c3cc(ccc31)-c1cc(O)cc(c1)C[C@H](NC(=O)[C@H](C(C)C)N1CNCC1=O)C(=O)N1CCC[C@H](N1)C(=O)OCC(C)(C)C2 [Compound A345] | 1000 to 10000 | 100 to 1000 | 1000 to 10000 | 1000 to 10000 | 100 to 1000 | 100 to 1000 | 100 to 1000 | 100 to 1000 | 100 to 1000 | –
16 | CCn1c(-c2cccnc2[C@H](C)OC)c2c3cc(ccc31)-c1cc(O)cc(c1)C[C@H](NC(=O)C(C)=C(C)C)C(=O)N1CCC[C@H](N1)C(=O)OCC(C)(C)C2 [Compound A398] | 1000 to 10000 | 1000 to 10000 | > 10000 | 1000 to 10000 | 1000 to 10000 | 100 to 1000 | 1000 to 10000 | 1000 to 10000 | 1000 to 10000 | –
